Assay results from patent US20060095978A1, “Screening assay” (priority 2002, published 2006).

Legend:
Type in all cases: in vivo, mouse
[1] = test system: IL-2; assay: Serum IL-2 in OVA323-339 stimulated DO11.10 mice (ELISA)
Protocol: (§1) Groups of six, 8-10 weeks old, male or female DO11.10 mice weighing between 20-22 g are obtained as described in Murphy K. M. et al. 1990, Science 250:1720-1722. The animals are maintained in Microvent positive air supply cages (22±1° C., 55±5% relative humidity, 50-70 changes of fresh air/hour and 12 hours day and night cycle) with sawdust bedding. Standard laboratory mouse chow (SNIFF, Soest, Germany) and drinking water is given ad libidum. The animals are used for the study after an adaptation period of 10-14 days and grouped (6 per group) in type II Macrolon cages one day before the experiment.
(§2) Groups of six DO11.10 mice are i.p. injected with 10 μg of ovalbumin (OVA, Sigma, St. Louis, USA) absorbed to 2 mg of Al(OH)3 (Alu Gel S; 2% Al(OH)3, Serva, Heidelberg, FRG) and diluted with saline to a volume of 0.2 ml or various amounts (1, 3, 10, 30, or 90 μg per mouse) of alum-precipitated OVA323-339 peptide (98% purity, piChem R&D, Graz Austria) in 0.2 ml on days 0 and 14. Before and at different time points on days 0 and 14 after the OVA or OVA323-339 peptide administration about 200 μl of blood are collected by puncture of the retro-orbital plexus under ether anesthesia.
The sera are collected and stored frozen at −20° C. until analyzed.
The Neoral solution is diluted further with tap water. Doses of 20, 40, and 80 mg/kg b.w. are administered in a volume of 0.2 ml. Animals in the control group receive the solvent alone.
(§3) Murine IL-2, IFN-γ and IL-4 are analyzed by immunoassays (Quantikine R&D Systems, Minneapolis, Minn., USA). Results are expressed as pg per ml serum expressed as mean±SEM pg of the cytokine indicated per ml serum. Test and control groups are evaluated by Dunn test by Kruskall-Wallis One Way Anova using the SigmaStat® program.
Animals of the control group are injected with alum. Blood is collected before and at 2 hours after the peptide injection. IL-2 is determined in the sera by an ELISA. Results are expressed as mean pg per ml serum±SEM.
Blood is collected 2 hours later and IFN-γ, IL-4 and IL-2 levels are determined in the sera by ELISAs. Results are expressed as mean pg per ml serum±SEM.

[2] = test system: TNF-α; assay: Serum TNF-α in DO11.10 mice primed with OVA-peptide and challenged with LPS
Protocol: Animals are provided as described in Example 2a).
b) Administration of OVA323-339 (=OVA-peptide) and LPS Groups of six DO11.10 mice receive i.p. 30 μg of OVA323-339 peptide (98% purity, pi Chem R&D, Graz Austria) in 0.2 ml 0.9% saline per mouse. Control mice are injected i.p. with the same amount of saline.
18 hours later the mice are challenged i.p. with 100, 300 or 500 μg LPS (E. coli 0111: B4 Sigma Vienna, Austria). At 2, 4 and 6 hours after the LPS administration about 200 μl of blood are collected by puncture of the retro-orbital plexus under ether anesthesia. The sera are collected and stored frozen at −20° until analyzed.
Murine IL-1α, IL-1β and TNF-α serum levels are determined by ELISAs (IL-1α and TNF-α, Bender MedSystems, Vienna Austria; IL-1β, Quantikine R&D Systems, Minneapolis, Minn.). Results are expressed as pg per ml serum. Differences in the serum cytokines concentrations between the different experimental groups are examined for statistical significance by the Mann-Whitney U test, two tailed. Results are expressed as the mean±SEM. p<0.05 is regarded as significant.
The effects of various doses of LPS (100, 300, or 500 μg/mouse) on the production of TNF-α in the serum of non-sensitized DO11.10 mice or mice sensitized by i.p. injection of OVA-peptide (30 μg/mouse, 18 hours prior to LPS challenge) are given in TABLE 8. The TNF-α serum levels are expressed as mean pg per ml serum±SEM.

[3] = test system: IL-4; assay: Serum IL-4 in OVA323-339 stimulated DO11.10 mice (ELISA); conditions: for IL-4 level in pg/ml serum on day 0 after 0 hours: 0 hours (before injection)
Protocol: as §1, §2
The sera are collected and stored frozen at −20° C. until analyzed. […]
as §3
Serum IL-4 levels after primary and secondary OVA323-339 peptide antigen stimulation are shown in TABLE 3: Groups of 6 mice receive various doses (1, 3, 10, 30 and 90 μg/mouse) of alum-precipitated OVA323-339 peptide i.p. on day 0 and 14. Animals of the control group are injected with alum. Blood is collected before and at 2, 4, and 6 hours after the first (A) and after the second peptide injection (B). IL-4 is determined in the sera by an ELISA. Results are expressed as mean pg per ml serum±SEM. […]

In the case of “OVA323-339: peptide derived from chicken ovalbumin containing amino acids from position 323 to 339 (KISQAVHAAHAEINEAG; UniProt P01012 323-339, looked up, fragment)”, the “IL-2 levels in pg/ml serum on day 0 after 2 hours” value (from here on “IL-2 levels in pg/ml serum”) ([1]; 3 μg OVA323-339 i.p.) was 327.513 ± 76.331 pg/mL, the “IL-2 levels in pg/ml serum” value ([1]; 10 μg OVA323-339 i.p.) was 2866.966 ± 361.613 pg/mL and the “IL-2 levels in pg/ml serum” value ([1]; 30 μg OVA323-339 i.p.) was 2926.303 ± 381.536 pg/mL. For the same substance, the “IL-2 levels in pg/ml serum” value ([1]; 90 μg OVA323-339 i.p.) was 4841.034 ± 108.352 pg/mL, the “TNF-α in OVA-primed versus unprimed mice” value ([2]; 100 μg LPS, 2 hours) was 9.7 fold and the “change in TNF-α levels, OVA-primed versus unprimed” value ([2]; 100 μg LPS, 4 hours) was “no significant changes”. For the same substance, the “TNF-α in OVA-peptide primed versus unprimed mice” value ([2]; 300 μg LPS, 2 hours) was 7.8 fold, the “difference in TNF-α levels, OVA-peptide primed versus unprimed” value ([2]; 300 μg LPS, 4 hours) was “no difference” and the “TNF-α in OVA-peptide primed versus unprimed mice” value ([2]; 500 μg LPS, 2 hours) was 5.2 fold. For the same substance, the “IL-4 level in pg/ml serum on day 0 after 0 hours” value (“IL-4 level … after 0 hours” for short) ([3]; 1 μg OVA323-339 i.p.) was 25.770 ± 2.618 pg/mL, the “IL-4 level in pg/ml serum on day 0 after 2 hours” value (“IL-4 level … after 2 hours” below) ([3]; 1 μg OVA323-339 i.p.) was 36.426 ± 5.871 pg/mL and the “IL-4 level in pg/ml serum on day 0 after 4 hours” value (“IL-4 level … after 4 hours” below) ([3]; 1 μg OVA323-339 i.p.) was 4.094 ± 1.072 pg/mL. The “IL-4 level in pg/ml serum on day 0 after 6 hours” value (“IL-4 level … after 6 hours” below) ([3]; 1 μg OVA323-339 i.p.) was 13.354 ± 4.010 pg/mL, the “change of IL-4 levels” value ([3]; 1 μg of peptide, first injection) was “remain unchanged” and the “IL-4 level … after 0 hours” value ([3]; 3 μg OVA323-339 i.p.) was 17.905 ± 3.616 pg/mL. For the same substance, the “IL-4 level … after 2 hours” value ([3]; 3 μg OVA323-339 i.p.) was 37.706 ± 4.028 pg/mL, the “IL-4 level … after 4 hours” value ([3]; 3 μg OVA323-339 i.p.) was 7.903 ± 0.957 pg/mL and the “IL-4 level … after 6 hours” value ([3]; 3 μg OVA323-339 i.p.) was 11.051 ± 2.549 pg/mL. For the same substance, the “increase of serum IL-4 levels compared to alum control” value ([3]; 3 μg of peptide, after 2 hours) was “only slightly”, the “IL-4 level … after 0 hours” value ([3]; 10 μg OVA323-339 i.p.) was 16.296 ± 3.397 pg/mL and the “IL-4 level … after 2 hours” value ([3]; 10 μg OVA323-339 i.p.) was 41.870 ± 9.751 pg/mL. The “IL-4 level … after 4 hours” value ([3]; 10 μg OVA323-339 i.p.) was 18.804 ± 1.757 pg/mL, the “IL-4 level … after 6 hours” value ([3]; 10 μg OVA323-339 i.p.) was 5.735 ± 2.226 pg/mL and the “increase of serum IL-4 levels compared to alum control” value ([3]; 10 μg of peptide, after 2 hours) was “only slightly”. The “IL-4 level … after 0 hours” value ([3]; 30 μg OVA323-339 i.p.) was 16.524 ± 2.209 pg/mL, the “IL-4 level … after 2 hours” value ([3]; 30 μg OVA323-339 i.p.) was 93.594 ± 29.015 pg/mL and the “IL-4 level … after 4 hours” value ([3]; 30 μg OVA323-339 i.p.) was 41.725 ± 10.226 pg/mL. For the same substance, the “IL-4 level … after 6 hours” value ([3]; 30 μg OVA323-339 i.p.) was 17.173 ± 2.069 pg/mL, the “rise of serum IL-4 levels” value ([3]; 30 μg of peptide, at 2 hours) was 3 fold and the “IL-4 level … after 2 hours” value ([3]; 90 μg OVA323-339 i.p.) was 273.017 ± 95.997 pg/mL. The “IL-4 level … after 4 hours” value ([3]; 90 μg OVA323-339 i.p.) was 146.940 ± 21.784 pg/mL, the “IL-4 level … after 6 hours” value ([3]; 90 μg OVA323-339 i.p.) was 127.616 ± 7.397 pg/mL and the “rise of serum IL-4 levels” value ([3]; 90 μg peptide, after 4 and 6 hours) was 7-8 fold. The “increase of serum IL-4 levels” value ([3]; 90 μg peptide, after 2 hours) was 14 fold, the “rise in the IL-4 levels after the second antigen stimulation” value ([3]; second antigen stimulation (day 14)) was “up to several 100 fold” and the “change of IL-4 levels compared to the control” value ([3]; second injection of 1 μg of peptide 2 weeks later) was “does not change”.
